Measured values published in patent US10399989B2, “Pyrazolopyrimidine derivatives as BTK inhibitors for the treatment of cancer” (Loxo Oncology, Inc., priority 2016, dated 2019).
Read-outs that look alike come from different tables or passages of the source.

Experiments:
BTK^C481S = BTK^C481S (Homo sapiens (Human), UniProt Q06187, C481S); test: BTK^C481S binding affinity (TR-FRET, LanthaScreen); conditions: 5 h incubation
Outline: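 Tracer-displacement TR-FRET: 5 nM recombinant kinase, 2 nM Eu anti-His antibody and 30 nM Kinase Tracer 236 incubated 5 h with varying inhibitor in Kinase Buffer A. Read at 340 nm excitation, 615/665 nm emission. IC50 from log[inhibitor]–response variable-slope fit.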

EGFR = EGFR (Homo sapiens (Human), UniProt P00533); test: EGFR binding affinity (TR-FRET, LanthaScreen); conditions: 5 h incubation
Outline: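 IC50 derived by variable-slope fit of TR-FRET signal (ex 340, em 615 and 665 nm) against inhibitor concentration. Mix contained recombinant GST-detected EGFR at 2.5 nM, Eu anti-GST antibody at 2 nM and Kinase Tracer 199 at 3 nM in Kinase Buffer A, 5 h incubation.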

[1] = system: OCI-Ly10 human DLBCL cells; test: OCI-Ly10 anti-proliferative activity (Resazurin, 72 h); type: cell-based; conditions: read-out: Proliferation OCI-Ly10-IC50
Procedure: Compounds were assayed for effects on the growth of OCI-Ly10 human DLBCL cells that are dependent on NFκB signalling. OCI-Ly10 cells were grown in suspension in T225 flasks, centrifuged and re-suspended in 2.5% FBS containing media. Cells were then plated at 7.5×10^3 cells per well in 96-well plates in varying concentrations of compound and incubated for 72 h at 37° C. An additional plate of cells to be used as the Day 0 read was seeded without compound addition, Resazurin was added to each well, incubated for 5 h and the fluorescence measured at 590 nm. After 72 h of compound treatment, Resazurin was added to each well of the compound treated plates, incubated for 5 h and the fluorescence measured at 590 nm. The IC50 was then calculated by subtracting the average Day 0 value from each well value from the treated plates, each treatment was then calculated as a percentage of the DMSO control and the percentages plotted against the inhibitor concentration to estimate the IC50 from log [Inhibitor] vs response using the Variable Slope model in Graphpad prism from Graphpad software (SanDiego, Calif.).

BTK^WT = BTK^WT (Homo sapiens (Human), UniProt Q06187); test: BTK^WT binding affinity (TR-FRET, LanthaScreen)
Outline: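 Tracer-displacement TR-FRET: 2.5 nM recombinant BTK, 2 nM Eu anti-His antibody and 15 nM Kinase Tracer 236 in Kinase Buffer A with inhibitor for 5 h. Emission read at 615/665 nm (excitation 340 nm); IC50 from variable-slope fit of log concentration vs response.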

[2] = TR-FRET binding, 5 h incubation, read-out: BTK^WT IC50
[3] = Table 6, numeric values, read-out: BTK Binding IC50

Sequence of BTK^C481S (Q06187 whole entry C481S): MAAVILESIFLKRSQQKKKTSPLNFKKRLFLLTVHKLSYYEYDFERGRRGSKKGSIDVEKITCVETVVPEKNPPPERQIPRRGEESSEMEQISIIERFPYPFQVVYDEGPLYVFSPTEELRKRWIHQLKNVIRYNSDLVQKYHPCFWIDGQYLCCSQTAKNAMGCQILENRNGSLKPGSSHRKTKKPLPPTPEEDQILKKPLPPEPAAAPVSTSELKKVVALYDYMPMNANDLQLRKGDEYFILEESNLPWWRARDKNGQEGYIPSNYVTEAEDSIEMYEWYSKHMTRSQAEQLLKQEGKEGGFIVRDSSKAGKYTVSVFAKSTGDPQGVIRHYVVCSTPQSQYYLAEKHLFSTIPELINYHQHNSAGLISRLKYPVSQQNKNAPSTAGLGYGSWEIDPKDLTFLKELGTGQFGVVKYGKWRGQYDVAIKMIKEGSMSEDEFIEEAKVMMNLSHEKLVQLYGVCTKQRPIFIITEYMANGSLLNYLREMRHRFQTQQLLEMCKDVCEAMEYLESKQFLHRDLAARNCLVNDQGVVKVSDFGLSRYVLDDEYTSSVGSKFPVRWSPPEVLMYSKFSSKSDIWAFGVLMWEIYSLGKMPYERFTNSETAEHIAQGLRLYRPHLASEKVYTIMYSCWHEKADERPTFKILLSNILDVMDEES
Sequence of EGFR (P00533 25-1210): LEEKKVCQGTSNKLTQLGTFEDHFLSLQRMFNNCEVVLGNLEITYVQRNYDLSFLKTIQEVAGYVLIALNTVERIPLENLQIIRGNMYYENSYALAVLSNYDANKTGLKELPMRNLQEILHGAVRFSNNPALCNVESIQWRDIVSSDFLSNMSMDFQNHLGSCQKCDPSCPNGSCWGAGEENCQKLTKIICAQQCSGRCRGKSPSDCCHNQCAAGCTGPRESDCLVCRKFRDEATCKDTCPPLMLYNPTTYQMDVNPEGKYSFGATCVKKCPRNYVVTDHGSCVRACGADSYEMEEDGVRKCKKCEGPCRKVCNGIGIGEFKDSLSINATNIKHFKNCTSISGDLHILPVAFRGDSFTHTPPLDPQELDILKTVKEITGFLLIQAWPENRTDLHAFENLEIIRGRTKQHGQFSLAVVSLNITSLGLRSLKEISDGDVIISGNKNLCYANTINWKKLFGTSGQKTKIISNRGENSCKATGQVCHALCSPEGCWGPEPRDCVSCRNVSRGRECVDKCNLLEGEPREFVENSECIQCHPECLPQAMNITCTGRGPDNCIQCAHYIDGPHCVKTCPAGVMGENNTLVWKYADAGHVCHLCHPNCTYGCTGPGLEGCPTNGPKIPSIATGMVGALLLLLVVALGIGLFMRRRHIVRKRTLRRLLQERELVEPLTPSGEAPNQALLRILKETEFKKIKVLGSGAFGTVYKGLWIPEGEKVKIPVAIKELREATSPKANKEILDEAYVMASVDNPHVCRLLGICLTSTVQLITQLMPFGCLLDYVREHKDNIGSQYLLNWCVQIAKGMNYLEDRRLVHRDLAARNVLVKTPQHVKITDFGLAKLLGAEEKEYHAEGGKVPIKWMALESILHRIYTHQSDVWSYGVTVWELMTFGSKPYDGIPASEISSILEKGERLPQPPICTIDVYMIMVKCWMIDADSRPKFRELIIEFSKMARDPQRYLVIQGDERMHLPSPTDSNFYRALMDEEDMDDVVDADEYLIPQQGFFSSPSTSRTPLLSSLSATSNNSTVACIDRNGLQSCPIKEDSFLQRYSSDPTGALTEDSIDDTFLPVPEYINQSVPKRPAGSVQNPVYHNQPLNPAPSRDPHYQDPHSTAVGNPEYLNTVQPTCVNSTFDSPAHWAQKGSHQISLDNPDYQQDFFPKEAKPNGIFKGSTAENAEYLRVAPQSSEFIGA
Sequence of BTK^WT (Q06187 whole entry): as the sequence (Q06187 whole entry C481S) above, with S481C counted along it

SMILES | IC50 (BTK^C481S) [µM] | IC50 (EGFR) [µM] | IC50 ([1]; Homo sapiens, OCI-Ly10, 72 h) [µM] | IC50 (BTK^WT; [2]) [µM] | IC50 (BTK^WT; [3]) [µM] | IC50 [1] [µM]
COc1ccccc1C(=O)NCc1ccc(-c2nn(C3CCC4(C3)OCCO4)c3ncnc(N)c23)cc1 (stereo not drawn) [Example 25, N-[[4-[4-amino-1-(1,4-dioxaspiro[4.4]nonan-8-yl)pyrazolo[3,4-d]pyrimidin-3-yl]phenyl]methyl]-2-methoxy-benzamide] | ≤ 0.01 | 0.1 to 1 | 0.01 to 0.1 | ≤ 0.01 | – | –
COc1ccc(F)cc1C(=O)NCc1ccc(-c2nn(C(C)(C)C)c3ncnc(N)c23)cc1 [Example 43, N-[[4-(4-amino-1-tert-butyl-pyrazolo[3,4-d]pyrimidin-3-yl)phenyl]methyl]-5-fluoro-2-methoxy-benzamide] | ≤ 0.01 | 0.1 to 1 | 0.01 to 0.1 | ≤ 0.01 | – | –
COc1ccc(F)cc1C(=O)NCc1ccc(-c2nn(C3CCCC3)c3ncnc(N)c23)cc1 [Example 4, N-[[4-(4-Amino-1-cyclopentyl-pyrazolo[3,4-d]pyrimidin-3-yl)phenyl]methyl]-5-fluoro-2-methoxy-benzamide] | ≤ 0.01 | 0.1 to 1 | 0.01 to 0.1 | ≤ 0.01 | 0.0008 | –
COc1ccc(F)cc1C(=O)NCc1ccc(-c2nn(CC(F)(F)F)c3ncnc(N)c23)cc1 [Example 93, N-[[4-[4-Amino-1-(2,2,2-trifluoroethyl)pyrazolo[3,4-d]pyrimidin-3-yl]phenyl]methyl]-5-fluoro-2-methoxy-benzamide] | ≤ 0.01 | > 10 | 0.1 to 1 | ≤ 0.01 | – | –
COc1ccccc1C(=O)NCc1ccc(-c2nn([C@@H]3C[C@@H](O)C4CC43)c3ncnc(N)c23)cc1 (stereo partly drawn) [Example 45, N-[[4-[4-amino-1-[(2R,4R)-4-hydroxy-2-bicyclo[3.1.0]hexanyl]pyrazolo[3,4-d]pyrimidin-3-yl]phenyl]methyl]-2-methoxy-benzamide] | ≤ 0.01 | 0.1 to 1 | 0.1 to 1 | ≤ 0.01 | – | –
COc1ccccc1C(=O)NCc1ccc(-c2nn([C@H]3C=C[C@@H](OC(=O)C(C)(C)C)C3)c3ncnc(N)c23)cc1 [Example 48, [(1S,4R)-4-[4-amino-3-[4-[[(2-methoxybenzoyl)amino]methyl]phenyl]pyrazolo[3,4-d]pyrimidin-1-yl]cyclopent-2-en-1-yl] 2,2-dimethylpropanoate] | ≤ 0.01 | 1 to 10 | 0.1 to 1 | 0.01 to 0.1 | – | –
COCCNc1ncnc2c1c(-c1ccc(CNC(=O)c3ccccc3OC)cc1)nn2[C@H]1C=C[C@H](O)C1 [Example 58, N-[[4-[1-[(1R,4R)-4-hydroxycyclopent-2-en-1-yl]-4-(2-methoxyethylamino)pyrazolo[3,4-d]pyrimidin-3-yl]phenyl]methyl]-2-methoxy-benzamide] | ≤ 0.01 | 1 to 10 | 0.1 to 1 | ≤ 0.01 | – | –
COc1ccccc1C(=O)NCc1ccc(-c2nn([C@H]3C=C[C@H](n4ccnn4)C3)c3ncnc(N)c23)cc1 [Example 61, N-[[4-[4-amino-1-[(1R,4R)-4-(triazol-1-yl)cyclopent-2-en-1-yl]pyrazolo[3,4-d]pyrimidin-3-yl]phenyl]methyl]-2-methoxy-benzamide] | ≤ 0.01 | 1 to 10 | 0.1 to 1 | ≤ 0.01 | – | –
COc1ccccc1C(=O)NCc1ccc(-c2nn([C@H]3C=C[C@H](F)C3)c3ncnc(N)c23)cc1 [Example 54, N-[(4-{4-amino-1-[(1R,4R)-4-fluorocyclopent-2-en-1-yl]-1H-pyrazolo[3,4-d]pyrimidin-3-yl}phenyl)methyl]-2-methoxybenzamide] | ≤ 0.01 | 1 to 10 | 0.1 to 1 | ≤ 0.01 | 0.0007 | –
COc1ccccc1C(=O)NCc1ccc(-c2nn(C3CC=CC3)c3ncnc(N)c23)cc1 [Example 40, N-[[4-(4-amino-1-cyclopent-3-en-1-yl-pyrazolo[3,4-d]pyrimidin-3-yl)phenyl]methyl]-2-methoxy-benzamide] | ≤ 0.01 | 0.1 to 1 | 0.01 to 0.1 | ≤ 0.01 | – | –
COc1ccccc1C(=O)NCc1ccc(-c2nn(CC(F)(F)F)c3ncnc(N)c23)cc1 [Example 90, N-[[4-[4-Amino-1-(2,2,2-trifluoroethyl)pyrazolo[3,4-d]pyrimidin-3-yl]phenyl]methyl]-2-methoxy-benzamide] | 0.01 to 0.1 | > 10 | 1 to 10 | 0.01 to 0.1 | – | –
COc1ccccc1C(=O)NCc1ccc(-c2nn([C@H]3C=C[C@H](NC(C)=O)C3)c3ncnc(N)c23)cc1 [Example 60, N-[[4-[1-[(1R,4R)-4-acetamidocyclopent-2-en-1-yl]-4-amino-pyrazolo[3,4-d]pyrimidin-3-yl]phenyl]methyl]-2-methoxy-benzamide] | ≤ 0.01 | 1 to 10 | 0.1 to 1 | ≤ 0.01 | – | –
COc1ccccc1C(=O)NCc1ccc(-c2nn(C3CCCOC3)c3ncnc(N)c23)cc1 (stereo not drawn) [Example 34, N-[[4-(4-amino-1-tetrahydropyran-3-yl-pyrazolo[3,4-d]pyrimidin-3-yl)phenyl]methyl]-2-methoxy-benzamide] | ≤ 0.01 | 1 to 10 | 0.01 to 0.1 | ≤ 0.01 | – | –
COc1ccccc1C(=O)NCc1ccc(-c2nn(C3CCCC(=O)C3)c3ncnc(N)c23)cc1 (stereo not drawn) [Example 31, N-[[4-[4-amino-1-(3-oxocyclohexyl)pyrazolo[3,4-d]pyrimidin-3-yl]phenyl]methyl]-2-methoxy-benzamide] | ≤ 0.01 | 0.1 to 1 | 0.01 to 0.1 | ≤ 0.01 | – | –

The remaining lines, values ahead:

IC50 (BTK^C481S) [µM] | IC50 (EGFR) [µM] | IC50 ([1]; Homo sapiens, OCI-Ly10, 72 h) [µM] | IC50 (BTK^WT; [2]) [µM] | IC50 (BTK^WT; [3]) [µM] | IC50 [1] [µM] | SMILES
≤ 0.01 | 0.1 to 1 | 0.1 to 1 | ≤ 0.01 | – | – | COc1ccccc1C(=O)NCc1ccc(-c2nn(C3CCOCC3)c3ncnc(N)c23)cc1 [Example 29, N-[[4-(4-amino-1-tetrahydropyran-4-yl-pyrazolo[3,4-d]pyrimidin-3-yl)phenyl]methyl]-2-methoxy-benzamide]
0.01 to 0.1 | 0.1 to 1 | 0.1 to 1 | 0.01 to 0.1 | – | – | CNC1CCC(n2nc(-c3ccc(CNC(=O)c4ccccc4OC)cc3)c3c(N)ncnc32)CC1 (stereo not drawn) [Example 28, N-[[4-[4-amino-1-[4-(methylamino)cyclohexyl]pyrazolo[3,4-d]pyrimidin-3-yl]phenyl]methyl]-2-methoxy-benzamide]
≤ 0.01 | 0.1 to 1 | – | ≤ 0.01 | – | 0.01 to 0.1 | COc1ccccc1C(=O)NCc1ccc(-c2nn(C3CCC(C)(O)CC3)c3ncnc(N)c23)cc1 (single isomer, unassigned) [Example 92, N-[[4-[4-Amino-1-(4-hydroxy-4-methyl-cyclohexyl)pyrazolo[3,4-d]pyrimidin-3-yl]phenyl]methyl]-2-methoxy-benzamide]
≤ 0.01 | 0.1 to 1 | – | ≤ 0.01 | – | 0.1 to 1 | COc1ccccc1C(=O)NCc1ccc(-c2nn(C3CCC(O)CC3)c3ncnc(N)c23)cc1 (single isomer, unassigned) [Example 23-isomer1, N-[[4-[4-amino-1-(4-hydroxycyclohexyl)pyrazolo[3,4-d]pyrimidin-3-yl]phenyl]methyl]-2-methoxy-benzamide]
≤ 0.01 | 0.1 to 1 | – | ≤ 0.01 | – | 0.01 to 0.1 | COc1ccccc1C(=O)NCc1ccc(-c2nn(C3CCC(C(=O)N(C)C)CC3)c3ncnc(N)c23)cc1 (single isomer, unassigned; isomer 1) [33-isomer 1]
≤ 0.01 | 0.1 to 1 | – | ≤ 0.01 | 0.0004 | 0.01 to 0.1 | COc1ccccc1C(=O)NCc1ccc(-c2nn(C3CCC(O)CC3)c3ncnc(N)c23)cc1 (single isomer, unassigned) [Example 23-isomer2, N-[[4-[4-amino-1-(4-hydroxycyclohexyl)pyrazolo[3,4-d]pyrimidin-3-yl]phenyl]methyl]-2-methoxy-benzamide]
≤ 0.01 | 0.1 to 1 | 0.01 to 0.1 | ≤ 0.01 | – | – | CCOC(=O)C1CCC(n2nc(-c3ccc(CNC(=O)c4ccccc4OC)cc3)c3c(N)ncnc32)CC1 (stereo not drawn) [Example 32, ethyl 4-[4-amino-3-[4-[[(2-methoxybenzoyl)amino]methyl]phenyl]pyrazolo[3,4-d]pyrimidin-1-yl]cyclohexanecarboxylate]
